Earlier results as cited in patent US12421507B2, “Methods and compositions for optochemical control of CRISPR-CAS9” (THE BROAD INSTITUTE, INC., priority 2018, dated 2025).

What was measured:
mammalian DHFR (DHFRts) = conditions: cells expressing DHFRts
dystrophin exon 51 = conditions: across 48 weeks

CN(Cc1cnc2nc(N)nc(N)c2n1)c1ccc(C(=O)N[C@@H](CCC(=O)O)C(=O)O)cc1 [methotrexate]
degradation of DHFRts (mammalian DHFR (DHFRts)): inhibited degradation of the protein partially

CC[C@H](C(=O)N1CCCC[C@H]1C(=O)O[C@H](CCc1ccc(OC)c(OC)c1)c1cccc(OCCN2CCOCC2)c1)c1cc(OC)c(OC)c(OC)c1 [Shield-1]
binding to and stabilization of the DD (Mutants of human FKBP12): bind to and stabilize the DD in a dose-dependent manner

eteplirsen
average dystrophin positive fibers compared to baseline (dystrophin exon 51): 47%
